Assay results: US12534436B2, “Disubstituted adamantyl derivative or pharmaceutically acceptable salt thereof, and pharmaceutical composition for suppressing cancer growth comprising same as active ingredient” (ONECUREGEN CO., LTD., priority 2020, dated 2026)

What was measured:
HIF-1α [1] = assay: Western blot of HIF-1α accumulation in HepG2 cells; assay type: cell-based, human
ATP production = ATP production and ATP content (ENLITEN ATP assay kit), HepG2 cells; assay type: cell-based, human
Description: Next, the effect of mitochondrial respiration on ATP production by oxidative phosphorylation was evaluated by comparing the amount of ATP produced by glycolysis decomposition and mitochondrial respiration in the presence of LW1564 (compound 21-3). ATP content was determined as described in “Chou, T. C. Theoretical basis, experimental design, and computerized simulation of synergism and antagonism in drug combination studies. Pharmacol. Rev. 58, 621-681 (2006).” After HepG2 cells were seeded and incubated with LW1564 (compound 21-3) for 6 hours, ATP content was measured using an ENLITEN® ATP assay kit (Promega, Madison, WI, USA) according to the manufacturer's instructions. Under normoxic conditions, HepG2 cells gained 47% of ATP by mitochondrial respiration and 53% by glycolysis decomposition. […] Compensatory upregulation of this degradation in response to suppression of oxidative phosphorylation occurred by AMPK activation, which was induced by a high AMP/ATP ratio.

HepG2 xenografted tumors = assay: HepG2 xenograft mouse model; assay type: in vivo, mice
From the text: In the HepG2 xenograft mouse model, the efficacy of LW1564 (compound 21-3) on tumor proliferation was investigated. All animal experiments were approved and performed according to the guidelines of the Institutional Animal Care and Use Committee of the Korea Research Institute of Bioscience & Biotechnology (Daejeon, Korea). Specific pathogen-free female nude mice (6 weeks old) were inoculated with HepG2 cells (1×10^7) subcutaneously on the right flank. When tumor volumes reached 100 to 150 mm^3, mice were randomly assigned to vehicle and LW1564 (compound 21-3) treatment groups (n=6). LW1564 (compound 21-3) (10 mg/kg) was administered intraperitoneally daily for 2 weeks. The tumor size was measured using a microcalliper, and the tumor volume was calculated using a standard volume: length×width^2×0.5. Significant differences between the two groups were determined by Student's t-test.

HIF-1α [2] = assay: HIF-1α protein accumulation in other cancer cell lines under hypoxia; assay type: cell-based, human; details: A549, WiDr, MIA-CaCa2 and HCT116 (FIG. 2D)
HIF-1α mRNA = assay: qPCR of HIF-1α mRNA; assay type: cell-based, human; details: qPCR (FIG. 2C)
From the text: In addition, the amount of HIF-1α mRNA in LW1564-treated cells was investigated by a qPCR method. Total RNA was isolated using TRIzol reagent (Invitrogen), and cDNA was synthesized using TOPscript™ DryMIX (Enzynomics, Seoul, Korea). The HIF1A primer sequences are Fwd 5′-CTGACCCTGCACTCAATCAAG-3′ and Rev 5′-TGGGACTATTAGGCTCAGGTG-3.

[3] = test system: GLUT1, PDK1 and VEGF mRNA; assay: qPCR of HIF-1 target genes in HepG2 cells; assay type: cell-based, human; details: hypoxia, HepG2 cells (FIG. 2E)
Description: Next, mRNA levels of HIF-1 target genes GLUT1, PDK1 and VEGF were measured. The primer sequences were Fwd 5′-TTTGGCTACAACACTGGAGTC-3′ (SEQ ID NO: 1) and Rev 5′-CATGCCCCCAACAGAAAAGAT-3′ (SEQ ID NO: 2) for GLUT1; Fwd 5′-CAGGACAGCCAATACAAGTGG-3′ (SEQ ID NO: 3) and Rev 5′-CATTACCCAGCGTGACATGAA-3′ (SEQ ID NO: 4) for PDK1; Fwd 5′-CCTTGCTGCTCTACCTCCAC-3′ (SEQ ID NO: 5) and Rev 5′-ATGATTCTGCCCTCCTCCTT-3′ (SEQ ID NO: 6) for VEGFA; and Fwd 5′-CATAGGAAGCTGGGAGCAAG-3′ (SEQ ID NO: 7) and Rev 5′-GCCCTCCAATCAGTCTTCTG-3′ (SEQ ID NO: 8) for RPL13A. […] Taken together, it was identified that LW1564 (compound 21-3) suppressed HIF-1α accumulation through stimulated proteasome degradation, thereby reducing the mRNA expression of the target gene.

HIF-1α activity = assay: HRE-luciferase assay in HepG2 cells; assay type: cell-based; details: Homo sapiens; HepG2 cells (FIG. 2A)
Description: In the presence of oxygen, when the proline residue of the oxygen-dependent degradation (ODD) domain of HIF-1α is hydroxylated by prolyl hydroxylase (PHD), HIF-1α degradation is promoted by binding to Von Hippel-Lindau syndrome (VHL) associated with VCB-Cul2 E3 ligase that induces proteolysis. […] First, HIF-1α activity was investigated using HRE-luciferase assay in HepG2 cells treated with LW1564 (compound 21-3). The HRE-luciferase reporter assay was performed as previously described using the luciferase assay system (Promega, Madison, WI, USA) according to the manufacturer's instructions (Naik, R. et al. Synthesis and Structure-Activity Relationship of (E)Phenoxyacrylic Amide Derivatives as Hypoxia-Inducible Factor (HIF) la Inhibitors. J. Med. Chem. 55, 10564-1057 (2012)). Luciferase activity was measured using a Victor X light luminescence reader (PerkinElmer, Boston, MA, USA).

lipid synthesis = assay: Nile red staining of lipid accumulation in HepG2 cells; assay type: cell-based, human; details: 24 hours (FIG. 5B)
Description: In order to explore this possibility, the effect of LW1564 (compounds 21-3) on lipid synthesis using Nile red, a fluorescent probe that binds to hydrophobic molecules such as lipid droplets was evaluated. Nile red staining was performed as described in “1. Huang, D. et al. HIF-1-mediated suppression of acyl-CoA dehydrogenases and fatty acid oxidation is critical for cancer progression. Cell Rep. 8, 1930-1942 (2014).” HepG2 cells were treated with LW1564 (compound 21-3) for 24 hours and then stained with 200 nM Nile Red and 1 μM Calcein AM for 10 minutes. Data were collected and analyzed with an IncuCyte ZOOM® system (Essen BioScience). For normalization, cell viability was measured using a cell-permeant fluorescent dye, Calcein AM.

COc1cc2c(cc1OC)CN(C(=O)C13CC4CC(C1)CC(c1ccc(OCC(=O)N5CCN(Cc6ccc(C(F)(F)F)cc6)CC5)cc1)(C4)C3)CC2 [Compound 21c, 2-(4-(3-(6,7-Dimethoxy-1,2,3,4-tetrahydroisoquinoline-2-carbonyl)adamantan-1-yl)phenoxy)-1-(4-(4-(trifluoromethyl)benzyl)piperazin-1-yl) ethanone] was tested, and the “HIF-1α protein amount in the presence of cobalt chloride” value (HIF-1α [1]; Western blot, cobalt chloride (FIG. 2B)) was “did not affect HIF-la protein amount”, the “accumulation of HIF-1α” value (HIF-1α [1]; hypoxic conditions (FIG. 2B)) was “suppressed the accumulation of HIF-1α in a concentration-dependent manner” and the “glycolysis-derived ATP production” value (ATP production; HepG2 cells (FIG. 3B)) was “increased”. For the same compound, the “total ATP production, short period of time” value (ATP production; HepG2 cells (FIG. 3B)) was “slightly decreased total ATP production”, the “intracellular total ATP levels, longer period” value (ATP production; HepG2 cells (FIG. 3C)) was “significantly decreased intracellular total ATP levels” and the “mitochondrial-derived ATP production” value (ATP production; HepG2 cells, normoxic, untreated cells 47% of ATP by mitochondrial respiration (FIG. 3B)) was 16%. The “weight of the tumors removed from the mice” value (HepG2 xenografted tumors; 10 mg/kg intraperitoneally daily for 2 weeks (FIG. 6 middle)) was “reduced”, the “reduction in tumor size compared to the control group” value (HepG2 xenografted tumors; 10 mg/kg intraperitoneally daily for 2 weeks, female nude mice (FIG. 6 left)) was 67% and the “HIF-1α protein accumulation in various cancer cell lines” value (HIF-1α [2]) was “significantly reduced HIF-1α protein accumulation”. For the same compound, the “amount of HIF-1α mRNA” value (HIF-1α mRNA) was “no change in the amount of HIF-1α mRNA”, the “mRNA amount of HIF-1 target genes GLUT1, PDK1 and VEGF” value [3] was “decreased the mRNA amount of GLUT1, PDK1 and VEGF” and the IC50 (HIF-1α activity) was 1200 nM. The “lipid accumulation (Nile red)” value (lipid synthesis) was “reduced lipid accumulation in a concentration-dependent manner”.
